The record followed here is patent US20150150878A1, “Methods For Inhibiting Viruses By Targeting Cathepsin-L Cleavage Sites In The Viruses' Glycoproteins” (priority 2012, published 2015).

In data set [1] the test system is EBOV-GP pseudotyped virus. As to the kind of experiment: microbe, parasite or virus in culture. The format is cell-based, Ebola virus. Particulars: for inhibition at 10 µM: read-out: inhibition of EBOV pseudotyped virus entry; for IC50: read-out: IC50 against EBOV pseudotyped virus.
Data set [2] has as its system SARS-CoV-S pseudotyped virus. As to the kind of experiment: microbe, parasite or virus in culture. The data set is classed as cell-based. The settings on record: for inhibition at 10 µM: read-out: inhibition of SARS-CoV pseudotyped virus entry; for IC50: read-out: IC50 against SARS-CoV-S pseudotyped virus.
Data set [3] deals with T1, cathepsin L (Homo sapiens, UniProt P07711). The data set is classed as biochemical. Also noted: human cathepsin L purified from human liver (Sigma Aldrich); purchased Sigma Aldrich; host or cells: human liver (tissue-purified).
T1 sequence (P07711 114-333): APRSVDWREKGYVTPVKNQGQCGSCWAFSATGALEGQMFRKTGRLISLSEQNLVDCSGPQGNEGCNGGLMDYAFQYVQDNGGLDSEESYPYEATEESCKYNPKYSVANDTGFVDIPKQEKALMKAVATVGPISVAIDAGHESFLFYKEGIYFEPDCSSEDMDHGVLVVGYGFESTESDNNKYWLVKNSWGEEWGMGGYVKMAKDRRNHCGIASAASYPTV
Data set [4] has as its target T1, cathepsin L. The data set is classed as biochemical. Further details: human cathepsin L purified from human liver (Sigma Aldrich); purchased Sigma Aldrich; host or cells: human liver (tissue-purified). This is another data set of the same source.
Data set [5] has as its target T1, cathepsin L. The format is biochemical. Also noted: human cathepsin L purified from human liver (Sigma Aldrich); purchased Sigma Aldrich; host or cells: human liver (tissue-purified). The source holds these as a separate data set.
Data set [6] has as its target T1, cathepsin L. The format is biochemical. Further details: human cathepsin L purified from human liver (Sigma Aldrich); purchased Sigma Aldrich; host or cells: human liver (tissue-purified). The source holds these as a separate data set.
Data set [7] deals with T1, cathepsin L. The data set is classed as biochemical. Also noted: human cathepsin L purified from human liver (Sigma Aldrich); purchased Sigma Aldrich; host or cells: human liver (tissue-purified). The source holds these as a separate data set.
The target of data set [8] is T1, cathepsin L. The format is biochemical.
Data set [9] has as its system SARS-CoV pseudotyped virus. The format is cell-based.
For data set [10], the target named is T1, cathepsin L. The format is biochemical. The source holds these as a separate data set.
Where [11] appears, read: Severe acute respiratory syndrome coronavirus, 72 h.

SMILES strings stand for the structures. Values joined by “and” are separate entries in the source; they are usually repeats but may differ in a detail not shown here. Equal values may be shown once. Where a name gives a salt, the structure may show the parent alone. Read-outs that look alike come from different tables or passages of the source. Residues, ends and D or L forms follow the SMILES beside them. *: point of attachment. Cbz = O=C(OCc1ccccc1)*

As a reminder, the inhibition is the relative decrease from the control value, in per cent. With `O=C(Nc1cccc(C(F)(F)F)c1)Nc1ccc(Cl)c(Cl)c1` [Compound 5182554, 1-(3,4-dichlorophenyl)-3-(3-(trifluoromethyl)phenyl)urea], the inhibition at 10 µM in [1] (Zaire ebolavirus, 72 h) was 60.5%. For the same compound, in data set [2] (setting [11]), the inhibition at 10 µM amounted to 49.3%. For the same compound, the “cytotoxic effect on 293FT cells” value with 293FT cells is reported as “toxic”. Further, the cytotoxicity in the data set with 293FT cells (human) is recorded as 20-100%. In addition, on cathepsin L [3], the “Inhibition of cleavage of SARS peptide by Cathepsin-L” value came out at 78.1% and the “percentage inhibition against SARS peptide” value came out at 72.6%. At cathepsin L [4], the “Inhibition of cleavage of Ebola peptide by Cathepsin-L” value is given as 31% and the “percentage inhibition against Ebola peptide” value was determined as 77%. Further, at cathepsin L [5], the “Inhibition of cleavage of Nipah peptide by Cathepsin-L” value was 44% and the “percentage inhibition against Nipah peptide” value is on record as 56.5%. For the same compound, at cathepsin L [6], the “Inhibition of cleavage of Hendra peptide by Cathepsin-L” value worked out at 49.4% and the “percentage inhibition against Hendra peptide” value turned out to be 50.9%. Further, on cathepsin L [7], the “Inhibition of cleavage of NPY peptide by Cathepsin-L” value is 7.4% and the “percentage inhibition against human Pro-NPY peptide” value is 14.8%.

For orientation: IC50 means the concentration needed to halve the response being measured. In the case of `COC(=O)CN(C#N)c1nc(NC(C)C)nc(NC(C)C)n1` [Compound 5705213, methyl 2-(N-(4,6-bis(isopropylamino)-1,3,5-triazin-2-yl)cyanamido)acetate], in data set [1] (Zaire ebolavirus, 72 h), the half-maximal inhibitory concentration (IC50) stood at 15 µM and the inhibition at 10 µM came out at 39.8%. Besides, in data set [2] (setting [11]), the 50% inhibitory concentration (IC50) was determined as 9 µM and the inhibition at 10 µM is 64.7%. Further, at cathepsin L [8], the “inhibition of Cat L mediated cleavage of SARS-CoV-S-flag protein” value is recorded as “dose dependent inhibition”. Also, the “inhibition of SARS-CoV pseudotyped virus entry” value in data set [9] is 50% and 60%. Moreover, at cathepsin L [10], the “change of Vmax in presence of the inhibitor” value is “decrease” and the mechanism of inhibition entry is “mixed inhibitor”. Also, the cell viability result with 293FT cells (human) is given as “over 80%”. Also, at cathepsin L [3], the “Inhibition of cleavage of SARS peptide by Cathepsin-L” value was 79.8% and the “percentage inhibition against SARS peptide” value was determined as 90.1%. At cathepsin L [4], the “Inhibition of cleavage of Ebola peptide by Cathepsin-L” value turned out to be 42% and the “percentage inhibition against Ebola peptide” value worked out at 81.3%. For the same compound, on cathepsin L [5], the “Inhibition of cleavage of Nipah peptide by Cathepsin-L” value is 76.3% and the “percentage inhibition against Nipah peptide” value was determined as 90.7%. Further, at cathepsin L [6], the “Inhibition of cleavage of Hendra peptide by Cathepsin-L” value is given as 84.3% and the “percentage inhibition against Hendra peptide” value is 94.2%. Moreover, on cathepsin L [7], the “Inhibition of cleavage of NPY peptide by Cathepsin-L” value was 18% and the “percentage inhibition against human Pro-NPY peptide” value was determined as 20%.

Regarding `CN(C)C(=O)COC(=O)Cc1ccc(OC(=O)c2ccc(NC(=N)N)cc2)cc1` [protease inhibitor, Camostat mesylate], the “inhibition of SARS-CoV pseudotyped virus entry” value in data set [9] was 70%.

On to `N#Cc1ccc(NC(=O)Nc2ccc(Cl)cc2)cc1` [Compound 7910528, 1-(4-chlorophenyl)-3-(4-cyanophenyl)urea], for which, in [1] (Zaire ebolavirus, 72 h), the inhibition at 10 µM was determined as 23.3%. Further, in data set [2] (setting [11]), the inhibition at 10 µM is 30.3%. On cathepsin L [3], the “Inhibition of cleavage of SARS peptide by Cathepsin-L” value is reported as 56.5% and the “percentage inhibition against SARS peptide” value turned out to be 56.5%. Besides, on cathepsin L [4], the “Inhibition of cleavage of Ebola peptide by Cathepsin-L” value is given as 33.4% and the “percentage inhibition against Ebola peptide” value is 35%. In addition, on cathepsin L [5], the “Inhibition of cleavage of Nipah peptide by Cathepsin-L” value turned out to be 57.8% and the “percentage inhibition against Nipah peptide” value turned out to be 57.8%. Moreover, at cathepsin L [6], the “Inhibition of cleavage of Hendra peptide by Cathepsin-L” value is listed as 12.1% and the “percentage inhibition against Hendra peptide” value is 12.1%. Further, on cathepsin L [7], the “Inhibition of cleavage of NPY peptide by Cathepsin-L” value amounted to 6.5% and the “percentage inhibition against human Pro-NPY peptide” value came to 6.5%.

As to `O=C[C@H](Cc1ccc(O)cc1)NC(=O)[C@H](Cc1ccccc1)NC(=O)OCc1ccccc1` [cathepsin L inhibitor, Z-Phe-Tyr-CHO] (Cbz-Phe-Tyr-aldehyde), the “inhibition of SARS-CoV pseudotyped virus entry” value in [9] is 60% and 58%.

With `CCNc1nc(NC(C)(C)C)nc(N(C#N)CC(=O)OC)n1` [Compound 7402683, methyl 2-(N-(4-(tert-butylamino)-6-(ethylamino)-1,3,5-triazin-2-yl)cyanamido)acetate], the “inhibition of EBOV pseudotyped virus entry” value in [1] (10 µM) is given as 53.3%. Further, the values for the half-maximal inhibitory concentration (IC50) in [1] and in data set [2] were 10 µM and 6 µM, respectively. The “inhibition of SARS-CoV pseudotyped virus entry” value in [2] (10 µM) is reported as 68.3%. In addition, at cathepsin L [8], the “inhibition of Cat L mediated cleavage of SARS-CoV-S-flag protein” value was “dose dependent inhibition”. The “cytotoxic effect on 293FT cells” value in the data set on 293FT cells is listed as “no significant cytotoxicity”.

On to `O=c1[nH]c2ccc(S(=O)(=O)Nc3ccc(Cl)c(Cl)c3)cc2o1` [Compound 7914021, N-(3,4-dichlorophenyl)-2-oxo-2,3-dihydrobenzo[d]oxazole-6-sulfonamide], for which, in [1] (Zaire ebolavirus, 72 h), the inhibition at 10 µM was determined as 51.5%. Also, the inhibition at 10 µM in data set [2] (setting [11]) was 27.1%. In the data set with 293FT cells, the “cytotoxic effect on 293FT cells” value was “toxic”. Also, the cytotoxicity in the data set on 293FT cells (human) was 20-100%. For the same compound, on cathepsin L [3], the “Inhibition of cleavage of SARS peptide by Cathepsin-L” value turned out to be 71.7% and the “percentage inhibition against SARS peptide” value was found to be 85.2%. For the same compound, on cathepsin L [4], the “Inhibition of cleavage of Ebola peptide by Cathepsin-L” value is on record as 36% and the “percentage inhibition against Ebola peptide” value is 83.8%. On cathepsin L [5], the “Inhibition of cleavage of Nipah peptide by Cathepsin-L” value turned out to be 53.6% and the “percentage inhibition against Nipah peptide” value amounted to 82%. Also, at cathepsin L [6], the “Inhibition of cleavage of Hendra peptide by Cathepsin-L” value was 25.4% and the “percentage inhibition against Hendra peptide” value amounted to 52.2%. At cathepsin L [7], the “Inhibition of cleavage of NPY peptide by Cathepsin-L” value came to 13.1% and the “percentage inhibition against human Pro-NPY peptide” value was found to be 21.9%.
